# Reference: publication PMC4114247 (Cancer research, 2009)
# “Also recorded” adds a separate entry of the source.
# What was measured:
# [1] = molecular target: LNCaP cells (PSMA positive) (Homo sapiens, UniProt Q04609); assay: Direct binding to LNCaP cells
# [2] = Stability in blood plasma; type: in vitro ADME; conditions: data not shown
# [3] = system: PC3 cells (PSMA negative); assay: Direct binding to PC3 cells; conditions: 3 nM radioligand, 1 hour; PC3 cells lack PSMA
# [4] = system: NCr nude mice bearing LNCaP xenografts; assay: Mouse tissue distribution, LNCaP xenografts; type: in vivo
# [5] = system: NCr-nu/nu mice bearing PC3 xenografts; assay: Mouse tissue distribution, PC3 xenografts; type: in vivo; conditions: PSMA deficient PC3 xenografts
# PC3 PIP (PSMA +) tumors = assay: SPECT/CT imaging, PC3 PIP; conditions: 2 hr after injection
# LNCaP cells = assay: Internalization into LNCaP cells; type: cell-based, human; conditions: 100 nM, 0–2 hours
# [6] = system: mice bearing LNCaP xenografts; assay: SPECT/CT imaging, LNCaP xenografts; type: in vivo, mouse; conditions: 4 hr after injection
# [7] = Stability in liver microsomes; type: in vitro ADME; conditions: data not shown
# [8] = co-injected with 50 mg/kg PMPA, 2 hours
# [9] = male, athymic NCr-nu/nu, mouse, in vivo
# [10] = male, athymic NCr-nu/nu, mouse, in vivo, 0.25 h
# [11] = male, athymic NCr-nu/nu, mouse, in vivo, 1 h
# [12] = male, athymic NCr-nu/nu, mouse, in vivo, 2 h
# [13] = male, athymic NCr-nu/nu, mouse, in vivo, 4 h
# [14] = male, athymic NCr-nu/nu, mouse, in vivo, 8 h
# [15] = male, athymic NCr-nu/nu, mouse, in vivo, 24 h
# Chain of LNCaP cells (PSMA positive) (Q04609 whole entry): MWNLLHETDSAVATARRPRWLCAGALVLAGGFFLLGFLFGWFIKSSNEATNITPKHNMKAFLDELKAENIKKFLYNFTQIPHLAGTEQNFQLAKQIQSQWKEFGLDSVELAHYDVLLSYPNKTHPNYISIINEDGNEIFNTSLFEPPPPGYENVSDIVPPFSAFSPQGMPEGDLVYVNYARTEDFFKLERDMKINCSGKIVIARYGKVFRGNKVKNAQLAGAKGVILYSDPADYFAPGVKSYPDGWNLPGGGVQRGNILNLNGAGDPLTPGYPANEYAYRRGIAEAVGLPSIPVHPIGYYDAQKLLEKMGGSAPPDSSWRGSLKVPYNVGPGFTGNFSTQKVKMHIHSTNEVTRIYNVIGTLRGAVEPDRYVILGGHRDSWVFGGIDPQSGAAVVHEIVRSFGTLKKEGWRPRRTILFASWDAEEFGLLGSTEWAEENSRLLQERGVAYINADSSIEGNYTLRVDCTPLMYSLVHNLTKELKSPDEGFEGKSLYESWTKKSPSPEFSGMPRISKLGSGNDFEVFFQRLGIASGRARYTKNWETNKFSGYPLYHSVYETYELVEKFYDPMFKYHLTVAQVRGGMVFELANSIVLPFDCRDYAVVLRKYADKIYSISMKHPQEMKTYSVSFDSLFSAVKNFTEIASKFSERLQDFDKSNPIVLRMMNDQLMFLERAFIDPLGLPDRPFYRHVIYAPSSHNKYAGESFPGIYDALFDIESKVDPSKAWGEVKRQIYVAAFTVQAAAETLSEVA
structure (smiles),measurement,setting,value
"O=C(O)CC[C@H](NC(=O)N[C@@H](CCCCNC(=O)Nc1ccc(I)cc1)C(=O)O)C(=O)O [[^123I]MIP-1095, (S)-2-(3-((S)-1-carboxy-5-(3-(4-iodophenyl)ureido)pentyl)ureido)pentanedioic acid]",Binding to LNCaP cells in the presence of non-radiolabeled compound or PMPA,[1]; 3 nM radioligand with 10 µM non-radiolabeled compound or 10 µM PMPA,abolished; also recorded: inhibited
same,Binding to LNCaP cells,"[1]; 3 nM radioligand, 1 hour, room temperature",bound
same,Stability in blood plasma,[2],stable
same,Binding to PC3 cells,[3],no binding; also recorded: not to the PSMA deficient PC3 cells
same,Binding to LNCaP tumor xenografts with co-injected PMPA,[4]; [8],blocked
same,Binding to kidneys with co-injected PMPA,[4]; [8],blocked
same,Thyroid content (deiodination),[4]; [9],< 1 % of the total injected dose
same,tumor:blood ratio,[4]; [9],> 100
same,tumor:skeletal muscle ratio,[4]; [9],> 100
same,Ratio Tumor:Blood,[4]; [10],2.10
same,Ratio Tumor:Skeletal Muscle,[4]; [10],8.79
same,Tissue distribution: Adipose,[4]; [10],4.67 ± 4 %ID/g
same,Tissue distribution: Blood,[4]; [10],3.75 ± 0.7 %ID/g
same,Tissue distribution: Bone,[4]; [10],0.9 ± 0.27 %ID/g
same,Tissue distribution: Brain,[4]; [10],0.17 ± 0.05 %ID/g
same,Tissue distribution: Heart,[4]; [10],2.76 ± 0.54 %ID/g
same,Tissue distribution: Kidneys,[4]; [10],52.2 ± 12.2 %ID/g
same,Tissue distribution: Lg Intestine,[4]; [10],1.59 ± 1.45 %ID/g
same,Tissue distribution: Liver,[4]; [10],8.66 ± 1.54 %ID/g
same,Tissue distribution: Lungs,[4]; [10],4.53 ± 0.66 %ID/g
same,Tissue distribution: Sk.Muscle,[4]; [10],0.9 ± 0.2 %ID/g
same,Tissue distribution: Sm Intestine,[4]; [10],1.78 ± 1.05 %ID/g
same,Tissue distribution: Spleen,[4]; [10],9.65 ± 6.44 %ID/g
same,Tissue distribution: Stomach,[4]; [10],1.77 ± 0.52 %ID/g
same,Tissue distribution: Testes,[4]; [10],1.11 ± 0.51 %ID/g
same,Tissue distribution: Tumor (LNCaP xenograft),[4]; [10],7.9 ± 2.43 %ID/g
same,Ratio Tumor:Blood,[4]; [11],10.6
same,Ratio Tumor:Skeletal Muscle,[4]; [11],49.3
same,Tissue distribution: Adipose,[4]; [11],2.34 ± 0.48 %ID/g
same,Tissue distribution: Blood,[4]; [11],1.95 ± 0.23 %ID/g
same,Tissue distribution: Bone,[4]; [11],0.55 ± 0.04 %ID/g
same,Tissue distribution: Brain,[4]; [11],0.06 ± 0.03 %ID/g
same,Tissue distribution: Heart,[4]; [11],1.31 ± 0.22 %ID/g
same,Tissue distribution: Kidneys,[4]; [11],65.3 ± 7.5 %ID/g
same,Tissue distribution: Lg Intestine,[4]; [11],0.87 ± 0.38 %ID/g
same,Tissue distribution: Liver,[4]; [11],11.3 ± 1.3 %ID/g
same,Tissue distribution: Lungs,[4]; [11],3.22 ± 0.68 %ID/g
same,Tissue distribution: Sk.Muscle,[4]; [11],0.42 ± 0.03 %ID/g
same,Tissue distribution: Sm Intestine,[4]; [11],4.4 ± 0.55 %ID/g
same,Tissue distribution: Spleen,[4]; [11],4.57 ± 0.77 %ID/g
same,Tissue distribution: Stomach,[4]; [11],3.02 ± 0.47 %ID/g
same,Tissue distribution: Testes,[4]; [11],0.86 ± 0.18 %ID/g
same,Tissue distribution: Tumor (LNCaP xenograft),[4]; [11],20.7 ± 5.8 %ID/g
same,Ratio Tumor:Blood,[4]; [12],24.3
same,Ratio Tumor:Skeletal Muscle,[4]; [12],80.8
same,Tissue distribution: Adipose,[4]; [12],1.68 ± 1.15 %ID/g
same,Tissue distribution: Blood,[4]; [12],1.12 ± 0.48 %ID/g
same,Tissue distribution: Bone,[4]; [12],0.36 ± 0.11 %ID/g
same,Tissue distribution: Brain,[4]; [12],0.06 ± 0.02 %ID/g
same,Tissue distribution: Heart,[4]; [12],0.78 ± 0.28 %ID/g
same,Tissue distribution: Kidneys,[4]; [12],88.7 ± 23.8 %ID/g
same,Tissue distribution: Lg Intestine,[4]; [12],4 ± 2.82 %ID/g
same,Tissue distribution: Liver,[4]; [12],9.94 ± 2.53 %ID/g
same,Tissue distribution: Lungs,[4]; [12],2.3 ± 1.02 %ID/g
same,Tissue distribution: Sk.Muscle,[4]; [12],0.34 ± 0.17 %ID/g
same,Tissue distribution: Sm Intestine,[4]; [12],4.67 ± 0.86 %ID/g
same,Tissue distribution: Spleen,[4]; [12],3.73 ± 1.46 %ID/g
same,Tissue distribution: Stomach,[4]; [12],2.33 ± 1.79 %ID/g
same,Tissue distribution: Testes,[4]; [12],1.27 ± 0.31 %ID/g
same,Tissue distribution: Tumor (LNCaP xenograft),[4]; [12],27.3 ± 3.4 %ID/g
same,Ratio Tumor:Blood,[4]; [13],40.6
same,Ratio Tumor:Skeletal Muscle,[4]; [13],133
same,Tissue distribution: Adipose,[4]; [13],0.86 ± 0.43 %ID/g
same,Tissue distribution: Blood,[4]; [13],0.84 ± 0.23 %ID/g
same,Tissue distribution: Bone,[4]; [13],0.25 ± 0.04 %ID/g
same,Tissue distribution: Brain,[4]; [13],0.44 ± 0.91 %ID/g
same,Tissue distribution: Heart,[4]; [13],0.53 ± 0.09 %ID/g
same,Tissue distribution: Kidneys,[4]; [13],77.5 ± 16.6 %ID/g
same,Tissue distribution: Lg Intestine,[4]; [13],7.55 ± 7.69 %ID/g
same,Tissue distribution: Liver,[4]; [13],7.82 ± 1.01 %ID/g
same,Tissue distribution: Lungs,[4]; [13],1.6 ± 0.53 %ID/g
same,Tissue distribution: Sm Intestine,[4]; [13],6.64 ± 3.19 %ID/g
same,Tissue distribution: Spleen,[4]; [13],2.06 ± 0.63 %ID/g
same,Tissue distribution: Stomach,[4]; [13],4.09 ± 1.36 %ID/g
same,Tissue distribution: Testes,[4]; [13],0.84 ± 0.18 %ID/g
same,Ratio Tumor:Blood,[4]; [14],57.5
same,Ratio Tumor:Skeletal Muscle,[4]; [14],121
same,Tissue distribution: Adipose,[4]; [14],2.63 ± 4.66 %ID/g
same,Tissue distribution: Blood,[4]; [14],0.49 ± 0.21 %ID/g
same,Tissue distribution: Bone,[4]; [14],0.28 ± 0.13 %ID/g
same,Tissue distribution: Brain,[4]; [14],0.07 ± 0.02 %ID/g
same,Tissue distribution: Heart,[4]; [14],0.38 ± 0.12 %ID/g
same,Tissue distribution: Kidneys,[4]; [14],54.8 ± 19.1 %ID/g
same,Tissue distribution: Lg Intestine,[4]; [14],12.28 ± 5.35 %ID/g
same,Tissue distribution: Liver,[4]; [14],3.79 ± 0.87 %ID/g
same,Tissue distribution: Lungs,[4]; [14],1.53 ± 1 %ID/g
same,Tissue distribution: Sk.Muscle,[4]; [14],0.23 ± 0.13 %ID/g
same,Tissue distribution: Sm Intestine,[4]; [14],3.66 ± 0.9 %ID/g
same,Tissue distribution: Spleen,[4]; [14],1.34 ± 0.63 %ID/g
same,Tissue distribution: Stomach,[4]; [14],4.43 ± 2.28 %ID/g
same,Tissue distribution: Testes,[4]; [14],0.6 ± 0.12 %ID/g
same,Tissue distribution: Tumor (LNCaP xenograft),[4]; [14],28.1 ± 12.8 %ID/g
same,Ratio Tumor:Blood,[4]; [15],174
same,Ratio Tumor:Skeletal Muscle,[4]; [15],304
same,Tissue distribution: Adipose,[4]; [15],0.52 ± 0.25 %ID/g
same,Tissue distribution: Blood,[4]; [15],0.17 ± 0.1 %ID/g
same,Tissue distribution: Bone,[4]; [15],0.27 ± 0.19 %ID/g
same,Tissue distribution: Brain,[4]; [15],0.03 ± 0.01 %ID/g
same,Tissue distribution: Heart,[4]; [15],0.15 ± 0.08 %ID/g
same,Tissue distribution: Kidneys,[4]; [15],27 ± 26.2 %ID/g
same,Tissue distribution: Lg Intestine,[4]; [15],4.49 ± 3.09 %ID/g
same,Tissue distribution: Liver,[4]; [15],1.31 ± 0.63 %ID/g
same,Tissue distribution: Lungs,[4]; [15],0.55 ± 0.42 %ID/g
same,Tissue distribution: Sk.Muscle,[4]; [15],0.1 ± 0.04 %ID/g
same,Tissue distribution: Sm Intestine,[4]; [15],0.76 ± 0.48 %ID/g
same,Tissue distribution: Spleen,[4]; [15],0.45 ± 0.29 %ID/g
same,Tissue distribution: Stomach,[4]; [15],1.15 ± 1.2 %ID/g
same,Tissue distribution: Testes,[4]; [15],0.27 ± 0.23 %ID/g
same,Tissue distribution: Tumor (LNCaP xenograft),[4]; [15],29.1 ± 15.1 %ID/g
same,Blood-brain barrier crossing,"[4]; mouse, in vivo",do not cross the blood-brain barrier
same,Route of clearance,"[4]; mouse, in vivo",by both urinary and hepatobiliary routes
same,Localization to PC3 tumors,[5],not to the PSMA deficient PC3 tumors
same,SPECT/CT detection of PC3 PIP (PSMA +) tumors,PC3 PIP (PSMA +) tumors,detected
same,Internalization into LNCaP cells,LNCaP cells; 4 °C,but not at 4 °C
same,Internalization into LNCaP cells,LNCaP cells; 37 °C,internalized; also recorded: time dependent increase in radioactivity associated with the cellular pellet
same,SPECT/CT uptake in kidney and LNCaP tumor,[6],high uptake
same,Stability in liver microsomes,[7],stable
